The term logP denotes a log measure of how a compound divides between an organic and an aqueous phase. A high value points to higher lipophilicity.

The molecule `CCCCC/C=C\C/C=C\C/C=C\C/C=C\CCCC(=O)O` gave a logP of 6.98.

For `CCCCCCCCCCCCCCCCCCCC(=O)O`, the logP was 9.29.

The molecule `CC/C=C\C/C=C\C/C=C\CCCCCCCC(=O)O` registered a logP of 6.46.

With `CCCCCCCCCCCCCCCC(=O)O`, the logP turned out to be 7.17.

`CCCCCCC/C=C\CCCCCCC(=O)O`: the logP came out at 6.58.

In turn, `CC(C)OC(=O)c1ccccc1` came in with a logP of 3.09.

For `CCCCCCCCCCCCCC(=O)O`, the logP is 6.11.

Consider `CCCCCCCCCCCCCCCCCC(=O)O`, for which the logP amounted to 8.23.

For the molecule `CCCCCC(=O)O`, the logP is 1.87.

For the molecule `CCCCCCCC/C=C\CCCCCCCC(=O)O`, the logP is 7.64.

The molecule `CCCCC/C=C\C/C=C\CCCCCCCC(=O)O` returned a logP of 7.05.

The values above are taken from the SangsterLogP compilation.
